The record followed here is PMC7864049, “Co-crystal structures of HIV TAR RNA bound to lab-evolved proteins show key roles for arginine relevant to the design of cyclic peptide TAR inhibitors” (The Journal of Biological Chemistry, 2021).

Test [1] deals with Tat ARM binding to HIV-1 TAR RNA.
The test system of test [2] is HIV-1 TAR RNA (biotinylated TAR 27-mer). It counts as binding.
For the next test, the target named is HIV-1 TAR RNA (27-mer). The format is binding.
[3] abbreviates: pH 7.5, read-out: KD (apparent).

Where “and” joins values, the source holds several entries; their conditions need not be identical. Equal entries are not always repeated. Entries after “also recorded” stand apart in the source; their conditions may differ. Where two headings read alike, the source gives them in different places. Where no end group is shown, it is not given here.

As a reminder, the koff is the first-order rate constant of dissociation. Read a high koff as a short-lived complex. As usually defined, the kon is the second-order rate constant of association. With “RRRTPR (also: sidechain bridge or staple (positions not given here)) [TB-CP-6.9a, cyclic peptide (11-mer]”, the “block of Tat ARM binding to TAR” value in test [1] is listed as “formed a complex with TAR that occluded Tat-binding sites; also recorded: effectively block the interaction of TAR with the Tat ARM”. In test [2], the “TAR binding in presence of tRNA” value was “capable of binding under this condition”, the “fold difference in TAR-binding affinity” value was ~6 -fold, the “fold increase in kon” value is given as 8 -fold and the koff came to 0.024 ± 0.0001 s⁻¹. In test [2], the “koff × 10^−2” value is listed as 2.75 10^−2 s^−1 and the kon came out at 7463 ± 130 M⁻¹ s⁻¹. In addition, the “kon × 10^2” value in test [2] (0.625–20 μM) is reported as 76.50 10^2 M^−1s^−1. In addition, in test [2] (setting [3]), the Kd was determined as 3.6 µM. The Kd in test [2] (read-out: KD) worked out at 3.2 ± 0.8 µM. Besides, on HIV-1 TAR RNA (27-mer), the Kd was found to be 5 ± 0.6 µM, the “ΔG°” value is -7.1 ± 0.02 kcal/mol, the “ΔH°” value is −7.2 ± 0.2 kca/mol and the “−TΔS°” value was determined as 0.1 ± 0.2 kcal/mol. For the same substance, the Kd on HIV-1 TAR RNA (27-mer) (pH 7.5) was found to be 5.3 ± 0.2 µM.

Consider “PRQRTPRGQ (also: sidechain bridge or staple (positions not given here)) [TB-CP-6.7a, two terminal cysteines cross-linked via a methylene bridge]”, for which, in test [2], the koff stood at 0.018 ± 0.0001 s⁻¹; the “koff × 10^−2” value was 1.90 10^−2 s^−1; the kon was 863.0 ± 59.0 M⁻¹ s⁻¹ and 803 ± 14 M⁻¹ s⁻¹. Moreover, the Kd in test [2] (setting [3]) was found to be 22 µM. In test [2] (read-out: KD), the Kd came out at 23 ± 0.1 µM.
